Test [1] concerns acute hippocampal slices (CA1 pyramidal cell layer, Schaffer collateral stimulation). The test can be described thus: Electrophysiology: evoked field responses / synaptic transmission. Also noted: species or system Sprague-Dawley rats. The text has this: All animal procedures to produce acute hippocampal slices were approved by the Home Office. Male, 250 g, Sprague-Dawley rats were deeply anaesthetised with halothane and decapitated. The brain was quickly removed, and the hippocampi dissected out and then cut into 300 μm thick transverse slices on a vibratome (Leica, Milton Keynes, UK) in cold cutting solution (in mM: 189 sucrose, 2.5 KCl, 26 NaHCO3, 1.2 NaH2PO4, 10 glucose, 5 MgCl2, 0.1 CaCl2) equilibrated with 5% CO2, 95% O2. Slices were transferred to aCSF (in mM: 10 glucose, 125 NaCl, 5 KCl, 26 NaHCO3, 1 MgCl2, 1.25 NaH2PO4, 2 CaCl2, 10 sucrose) at room temperature, bubbled with 5% CO2 and 95% O2, for at least 1 h before use.
Slices were then transferred to a submerged perfusion chamber (2 ml volume) for the electrophysiological recordings and were perfused at 10 ml min^−1 at 25° C. with aCSF equilibrated with 5% CO2 and 95% O2, and allowed to equilibrate for 1 h before manipulations were started. Experimental compounds were applied by bath perfusion. L-Arg3,4 was applied at 300 μM and DNQX was applied at 10 μM final concentration. DNQX was diluted from a 40 mM stock in DMSO (final DMSO of 0.025%). The Schaffer collaterals of CA3 were stimulated at voltages from 0 to 30 V with a constant voltage stimulator (Digitimer, Hertfordshire, UK) via a twisted pair stimulating electrode of polyimide coated stainless steel wire (Plastics One, Roanoke, Va.). Field potential responses were recorded with an Axopatch 200B amplifier (Axon Instruments, Foster City, Calif.) in the fast current clamp mode via a 2M KCl filled glass electrode (2-5 MQ) in the CA1 pyramidal cell layer. Responses were filtered at 2 kHz, digitised at 20 kHz with a Digidata 1320A (Axon Instruments), and stored onto hard disk with Clampex 8.1 software (Axon Instruments) running on a Dell Pentium III PC. Data was analysed in Clampfit 8.1 (Axon Instruments).
Stimulus-response (S/R) curves were generated from stimuli from 0 to 30 V in 2 V increments. Bath perfusion of 300 μM L-Arg3,4 in aCSF was applied for 10 min with a sub-maximal stimulus applied every minute to monitor synaptic transmission. A second S/R curve was generated before the perfusion was switched back to plain aCSF. A sub-maximal stimulus was applied every minute during the 15 min wash period after which a third SIR curve was generated. Perfusion of 10 μM DNQX was then started until the response to the sub-maximal stimulus was completely eliminated which always occurred within 10 min. […] In Clampfit, S/R curves were fit to a sigmoidal function of the form: [formula] where R is the magnitude of the evoked response, Rmax is the maximum response, V50 is the voltage which produces a half maximal response, S is the stimulus voltage, and m is proportional to the slope of the linear region of the sigmoid. Data was compared by one way ANOVA.

Test [2] concerns superoxide production in organotypic slice cultures (CA1 pyramidal cell layer). Briefly: Superoxide production monitored fluorescently with hydroethidine (HEt). Type of test: cell-based, Wistar rat. Here is the method:
Hydroethidine (HEt) has been utilised to fluorescently monitor the production of superoxide in primary neuronal cultures [Bindokas et al., (1996), Carriedo et al. (1998)]. A stock solution of HEt was made was made in N2 sparged DMSO (10 mg ml^−1) which was then aliquoted and stored at −80° C. aliquots were used only once before being discarded. Two separate experimental paradigms were employed to test the effect of L-Arg3,4 on superoxide production in response to either AMPA or NMDA stimulation.
For the AMA experiments, organotypic slice cultures were loaded with 1 μg ml^−1 HEt in HEPES buffered salt solution (HSS) (in mM): glucose 10, NaCl 144, KCl 5, HEPES 10, MgCl2 1, CaCl2 2, pH 7.4, for 30 minutes in the dark. All subsequent solutions contained HEt to prevent a decrease in signal due to reporter depletion. Images were acquired once per minute for the duration of the experiment on the same system as described above for assessment of cell death. A 10 minute record of baseline superoxide production was produced before the bathing solution was exchanged for HBSS+BEt containing 10 μM AMPA, again for 10 minutes. As shown previously, stimulation of glutamate receptors with AMPA lead to an increase in superoxide production [Bindokas et al., (1996), Carriedo et al. (1998)]. The bathing solution was then exchanged for HBSS+HEt containing both 10 μM AMPA and 300 μM L-Arg3,4 for 10 minutes to test the effect of L-Arg3,4 on superoxide production. In separate control experiments, 300 μM L-Arg3,4 in HSS was incubated with slices to determine if it affected baseline superoxide production on its own.
Acquired images from the AMPA experiments were then analysed with the OpenLab image analysis package. A region of interest was drawn around the CA1 pyramidal cell layer because this was the cell layer that produced the largest increase in fluorescence in response to AMPA activation. In each image, within the region of interest, the average pixel value was calculated in arbitrary units (AU) to produce a record of fluorescence intensity values over time. A linear regression was then performed on the data to calculate the rate of superoxide production as change in intensity over time (arbitrary units per minute, AU min^−1) for each of the treatments. Data is presented as mean±s.d. Rates of superoxide production were then compared by ANOVA followed by post-hoc comparisons with Bonferroni corrections with significance indicated as * for P<0.05 and ** for P<0.01.

Setting [3] is: during bath perfusion of 300 μM, n=6.

The structures appear in SMILES notation.

Consider `N=C(N)NCCCC(N)C(=O)NCCCNCCCCN` [L-Arg3,4, L-arginyl-3,4-spermidine], for which the “effect on evoked responses” value in test [1] (bath application, L-Arg3,4 300 μM, DNQX 10 μM) is “had no effect on evoked responses”. Also, in test [1] (setting [3]), the “Rmax (maximum evoked response, S/R curve fit)” value worked out at 2.71 ± 1.31 mV; the “V50 (voltage producing half maximal response)” value is given as 15.98 ± 5.12 V; the “m (proportional to slope of sigmoid)” value is recorded as 0.59 ± 0.48. The “rate of baseline superoxide production” value in test [2] (300 μM compound alone, no AMPA) was 2.55±2.02 AU min^−1. The “rate of superoxide production” value in test [2] (300 μM compound in continued presence of 10 μM AMPA) was found to be 5.07±1.94 AU min-d.

Source of the values: patent US20050124554A1, “Spermidine derivatives for the treatment of chronic neurodegenerative diseases” (priority 2002, published 2005).
